From PMC7464552, “Structural Basis of Beneficial Design for Effective Nicotinamide Phosphoribosyltransferase Inhibitors” (Molecules, 2020)
pEC50, pIC50: −log10 of the molar value.

What was measured:
[1] = tested on: NAD+ levels in the cancer cells; test: Reduction of NAD+ levels in the cancer cells after 24 h-treatment; assay type: cell-based, human
Experimental: (§1) To confirm the marked differences of anti-NAMPT activities between 3a and 3b, the anti-proliferation effects of these inhibitors on the human colon cancer cell line HCT116 were examined after continuous exposure for 72 h. […] In addition, there was little cytotoxicity on non-cancer cell lines, such as TIG-120, WI38 and MRC-5 cells. Both 3a and 3b caused more than 90% reduction of NAD^+ levels in the cancer cells after 24 h-treatment and thereby induced cell death.

HCT116 cells = test: Cell activity (anti-proliferation) assay, WST-8, 72 h; assay type: cell-based, human; details: for rescue of HCT116 cells from cell death by supplementation of NMN: 100 μM NMN in the cell culture medium, 72 h; for pEC50: Homo sapiens, HCT-116, read-out: 50% effective concentration (EC50), anti-proliferation, HCT116, continuous exposure for 72 h, WST-8
Experimental: as §1
HCT116 cell was obtained from American Type Culture Collection (ATCC) (Manassas, US) and cultured in Dulbecco’s modified Eagle medium (DMEM) (FUJIFILM Wako Pure Chemical Corporation) supplemented with 10% of fetal bovine serum (Biosera Europe; Nuaillé, France), 100 Units/mL of penicillin G and 100 μg/mL of Streptomycin (FUJIFILM Wako Pure Chemical Corporation).
One thousand HCT116 cells were inoculated into the 96-well transparent cell culture plate and cultured for 24 h. The medium was changed to new medium that contained the tested compounds and was further cultivated for 72 h. Following the culture, 1/10 volume of the WST-8 reagent (FUJIFILM Wako Pure Chemical Corporation) was added and incubated for 1 h. After the incubation, the absorbance of the samples was detected at 450 nm using a SYNERGY HTX (BioTek Instruments, Inc.). Cell activity was expressed as percentage of control cells treated with vehicle alone.
(§2) Figure 3 Biochemical properties of 3a and 3b. (a) The inhibitory activities of 3a (open circle), 3b (open triangle) and 1 (open square) against NAMPT enzyme were examined, as described previously. NAMPT activity was measured using a coupled-enzyme reaction system (CycLex NAMPT colorimetric assay kit) in 96-well plate format using the one-step method. Data are the averages of three independent experiments, and the bars indicate the standard error (SE) values. (b) The anti-proliferative effects of 3a (circle) and 3b (triangle) on HCT116 cells were investigated as described previously. HCT116 cells were treated with the indicated concentrations of each inhibitor with (closed symbol) or without (open symbol) 100 μM NMN for 72 h. The cell activity (% of control) was measured by use of the WST-8 assay. Data are presented as the means of three independent experiments ± SE, and the bars indicate the SE values.

recombinant NAMPT = molecular target: T1, recombinant NAMPT (Homo sapiens, UniProt P43490); test: Enzymatic NAMPT assay (CycLex NAMPT colorimetric coupled-enzyme reaction system); assay type: biochemical; details: for pIC50: titration curves of Figure 3a, coupled-enzyme colorimetric assay, read-out: IC50 (NAMPT inhibitory activity)
T1 construct: purchased MEDICAL & BIOLOGICAL LABORATORIES CO., LTD; (CycLex NAMPT Colorimetric Assay Kit)
T1 sequence (P43490 whole entry): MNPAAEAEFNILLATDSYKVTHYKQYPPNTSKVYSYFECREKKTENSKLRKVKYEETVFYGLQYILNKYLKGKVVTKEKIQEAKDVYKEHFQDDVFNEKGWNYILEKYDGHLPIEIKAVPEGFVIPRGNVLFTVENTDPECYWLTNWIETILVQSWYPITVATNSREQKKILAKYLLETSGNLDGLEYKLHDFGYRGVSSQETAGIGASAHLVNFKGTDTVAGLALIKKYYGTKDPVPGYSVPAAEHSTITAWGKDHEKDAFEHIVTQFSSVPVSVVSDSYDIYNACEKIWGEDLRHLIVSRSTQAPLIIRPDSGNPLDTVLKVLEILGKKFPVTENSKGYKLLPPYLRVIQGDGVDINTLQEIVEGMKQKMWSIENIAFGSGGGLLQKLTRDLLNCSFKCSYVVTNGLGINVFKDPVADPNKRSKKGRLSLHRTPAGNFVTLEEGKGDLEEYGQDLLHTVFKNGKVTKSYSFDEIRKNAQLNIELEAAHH
Experimental: For the inhibitory effects of 3a and 3b on NAMPT activity, recombinant NAMPT activity was measured using a coupled-enzyme reaction system (CycLex NAMPT Colorimetric Assay Kit: MEDICAL & BIOLOGICAL LABORATORIES CO., LTD., Nagoya, Japan) according to the manufacturer’s instructions, as described previously. Briefly, NAMPT enzyme and tested compounds were put on the 96-well transparent plate. […] After a brief incubation, the absorbance of the samples was detected at 450 nm on every 10 min until 60 min using a SYNERGY HTX (BioTek Instruments, Inc.; Winooski, VT, USA). The inhibition rates were calculated by the initial slope of the absorbance of the tested samples divided by that of the control wells. The IC50 values for the samples were calculated by 4-parameter logistic regression using Image J 1.48v (https://imagej.nih.gov/ij/).
as §2, with “(a) The inhibitory activities of 3a (open circle), 3b (open triangle) and 1 (open square) against NAMPT enzyme were examined, as described previously.” left out

| Structure (SMILES) | reduction of NAD+ levels [1] | rescue of HCT116 cells from cell death by supplementation of NMN (HCT116 cells) | pEC50 (HCT116 cells) | fold stronger NAMPT inhibitory activity than 1 (recombinant NAMPT; ratio of IC50 values, versus 1) | pIC50 (recombinant NAMPT) | fold higher EC50 than 3a (HCT116 cells; HCT116, 72 h, ratio of EC50 values, versus 3a) | fold weaker NAMPT inhibitory activity than 3a (recombinant NAMPT; ratio of IC50 values, versus 3a) |
| --- | --- | --- | --- | --- | --- | --- | --- |
| O=C(NCCCCC1CCN(C(=O)c2ccccc2)CC1)c1cc2cnccc2[nH]1 [Compound 3a, N-(4-(1-benzoylpiperidin-4-yl)butyl)-1H-pyrrolo[3,2-c]pyridine-2-carboxamide] | more than 90% | significantly rescue | 9.32 | approximately 5 fold | 6.96 |  |  |
| O=C(NCCCCN1CCN(C(=O)c2ccccc2)CC1)c1cc2cnccc2[nH]1 [Compound 3b, N-(4-(4-Benzoylpiperazin-1-yl)butyl)-1H-pyroro[3,2-c]pyridine-2-carboxamide] | more than 90% | significantly rescue | 7.06 |  | 5.30 | approximately 200 fold | about 50 fold |
